In patent US9687458B2, “Trans-clomiphene for use in cancer therapy” (REPROS THERAPEUTICS INC., priority 2012, dated 2017):

Assays:
[1] = molecular target: T1, human estrogen receptor (Homo sapiens, UniProt P03372); settings: Murdter et al., Hum. Mol. Genet. 21:1145 (2012); cited from earlier work
T1 sequence (P03372 1-595): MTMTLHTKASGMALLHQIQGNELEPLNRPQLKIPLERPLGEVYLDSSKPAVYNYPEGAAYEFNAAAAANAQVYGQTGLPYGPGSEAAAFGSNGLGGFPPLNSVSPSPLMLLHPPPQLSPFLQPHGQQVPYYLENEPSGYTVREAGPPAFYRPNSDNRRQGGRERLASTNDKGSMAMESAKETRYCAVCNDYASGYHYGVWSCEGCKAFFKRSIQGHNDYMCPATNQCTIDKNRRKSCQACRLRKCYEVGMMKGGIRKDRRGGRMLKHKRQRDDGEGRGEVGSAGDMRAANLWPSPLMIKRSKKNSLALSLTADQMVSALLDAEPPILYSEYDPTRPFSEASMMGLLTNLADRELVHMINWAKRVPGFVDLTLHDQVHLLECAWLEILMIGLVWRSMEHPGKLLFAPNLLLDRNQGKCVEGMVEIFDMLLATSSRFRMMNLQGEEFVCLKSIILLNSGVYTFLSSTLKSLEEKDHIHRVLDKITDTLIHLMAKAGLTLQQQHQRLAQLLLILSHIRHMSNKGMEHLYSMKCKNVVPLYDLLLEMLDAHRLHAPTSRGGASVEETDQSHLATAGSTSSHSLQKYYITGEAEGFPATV

[2] = test system: circulating IGF-1; settings: Campbell et al., J. Clin. Pathol: Mol Pathol. 54:307 (2001); cited from earlier work
[3] = test system: serum (circulating) IGF-1; experiment: First clinical study: serum IGF-1 by immunoenzymometric assay, trans-clomiphene vs Testim over six months; format: in vivo, human
Method: The effect of the isolated trans-clomiphene isomer on free serum IGF-1 was tested in three separate clinical studies.
Adult male subjects with a morning total testosterone blood level of <300 ng/dl and a serum LH of <15 IU/ml who had previously undergone between 6 months and two years of topical testosterone therapy were administered either trans-clomiphene (25 mg/day via oral capsule) or a topical testosterone gel (Testim®, 50 mg applied daily) over a six month period according to the first study. Following an initial screening visit (Visit 1-V1), topical testosterone replacement therapy in the subjects was discontinued for either three weeks or three months. At the end of the washout period (Visit 2-V2), quantitative determination of baseline serum (circulating) IGF-1 measurements were made in the subjects by immunoenzymometric assay (Immunodiagnostics Systems Ltd., OCTEIA® IGF-1 kit) and treatment with either trans-clomiphene or Testim® was initiated. Follow-up measurements were taken at 3 months post initial dose (Visit 4-V4), 6 months post initial dose (Visit 5-V5) and one month after cessation of treatment (Visit 6-V6). Seven subjects completed six months of trans-clomiphene therapy and five subjects completed six months of Testim® therapy. The results are presented at FIG. 1. At baseline (V2), serum IGF-1 levels in both patient groups averaged about 140 ng/ml. […] Thus, circulating serum IGF-1 levels were reduced over 40% in subjects administered trans-clomiphene whereas exogenous testosterone had no effect on circulating serum IGF-1. Importantly, aside from low testosterone, these subjects were otherwise healthy—thus, administering trans-clomiphene provides an effective method for reducing serum levels of IGF-1 produced by the liver (i.e. growth-hormone dependent IGF-1).

[4] = test system: serum IGF-1; experiment: Second clinical study: serum IGF-1 after three months of trans-clomiphene or placebo; format: in vivo, human; settings: for Mean Change from Baseline (st dev): P<0.0001 vs placebo; for mean reduction in serum IGF-1 levels: three months
Method: Another study measured serum IGF-1 levels in human males with low/low-normal testosterone following treatment with trans-clomiphene. Briefly 38 males were administered trans-clomiphene at 12.5 mg per day, 35 males were administered trans-clomiphene at 25 mg per day and 43 males were administered a placebo (control group). Serum IGF-1 levels were measured by immunoenzymometric assay as described above at baseline and following three months of treatment with trans-clomiphene or placebo for each treatment group.

[5] = test system: serum IGF-1; experiment: Third clinical study: IGF-1 after 6 weeks of trans-clomiphene compared to AndroGel; format: in vivo, human
[6] = test system: corticotropin, prolactin or thyroid stimulating hormone; experiment: Studies on the effects of enclomiphine on men: other hormones secreted by the pituitary; format: in vivo, human
Description: The present invention provides methods for reducing IGF-1 levels in a subject in need of such treatment. […] Clomiphene is thought to exert its effects at the level of the hypothamus-pituitary axis by specifically stimulating secretion of the gonadotropic hormones LH and FSH. Neither of these gonadotropic hormones is known to play a general role in establishment or proliferation of cancer. Studies on the effects of enclomiphine on men found no changes in other hormones secreted by the pituitary such as corticotropin, prolactin or thyroid stimulating hormone. Growth hormone (GH), secreted by the pituitary is known to drive production of IGF-1 by the liver. Without wishing to be bound by theory it is believed that trans-clomiphene suppresses the pituitary production of GH thereby reducing the endocrine stimulated production of liver IGF-1. The activity of trans-clomiphene in reducing serum IGF-1 levels, renders the compositions useful for treating a variety of cancers having strong expression or overexpression of IGF-1 as a common underlying etiology.

## CCN(CC)CCOc1ccc(C(=C(Cl)c2ccccc2)c2ccc(O)cc2)cc1 [4-hydroxy-trans-clomiphene]
[1]
  ligand strength for the human estrogen receptor: strong ligands

## CCC(=C(c1ccccc1)c1ccc(OCCN(C)C)cc1)c1ccccc1 [tamoxifen, 2-[4-(1,2-diphenylbut-1-enyl)phenoxy]-N,N-dimethyl-ethanamine]
[2]
  change to circulating IGF-1 levels after treatment: no change

## CCN(CC)CCOc1ccc(/C(=C(/Cl)c2ccccc2)c2ccccc2)cc1 [trans-clomiphene]
[3]; group average at end of washout, before treatment, hypogonadal adult males
  serum IGF-1 level at baseline (V2): about 140 ng/ml
[3]; trans-clomiphene 25 mg/day oral capsule, n=7
  serum IGF-1 level after 3 months of treatment (V4): below 80 ng/ml
[3]; trans-clomiphene 25 mg/day oral or Testim 50 mg daily topical
  serum IGF-1 after 6 months of treatment (V5): remained depressed
[3]; trans-clomiphene 25 mg/day, vs baseline
  reduction of circulating serum IGF-1: over 40%
[4]; 12.5 mg per day group, n=38, before treatment
  Baseline IGF-1 (st dev): 115.2 (35.11) μg/L
[4]; 12.5 mg per day, n=38, month 3
  Mean Change from Baseline (st dev): −36.8 (22.3) μg/L
[4]; 12.5 mg per day, n=38, three months of treatment
  Month 3 IGF-1 (st dev): 77.3 (30.8) μg/L
[4]; 12.5 mg per day
  mean reduction in serum IGF-1 levels: ~32%
[4]; 25 mg per day group, n=35, before treatment
  Baseline IGF-1 (st dev): 107.2 (39.4) μg/L
[4]; 25 mg per day, n=35, month 3
  Mean Change from Baseline (st dev): −38.3 (29.5) μg/L
[4]; 25 mg per day, n=35, three months of treatment
  Month 3 IGF-1 (st dev): 70.4 (38.6) μg/L
[4]; 25 mg per day
  mean reduction in serum IGF-1 levels: 36%
[5]; 6.25 mg daily group, n=12, baseline
  IGF-1 - Naïve men: 101 ± 43 µg/L
[5]; 6.25 mg daily, n=12, after 6 weeks, p = 0.008 compared to AndroGel (MWW)
  IGF-1 - Treated men: 54 ± 30 µg/L
[5]; 12.5 mg daily group, n=10, baseline
  IGF-1 - Naïve men: 94 ± 47 µg/L
[5]; 12.5 mg daily, n=10, after 6 weeks, p = 0.0035 compared to AndroGel (MWW)
  IGF-1 - Treated men: 50 ± 24 µg/L
[5]; 25 mg daily group, n=12, baseline
  IGF-1 - Naïve men: 96 ± 45 µg/L
[5]; 25 mg daily, n=12, after 6 weeks, p = 0.008 compared to AndroGel (MWW)
  IGF-1 - Treated men: 62 ± 42 µg/L
[6]
  changes in other hormones secreted by the pituitary (corticotropin, prolactin, thyroid stimulating hormone): no changes
